How the values were obtained:
[1] = biological target: T1, human leucocyte elastase (HLE) (Homo sapiens, UniProt P08246); conditions: cited from earlier work
T1 sequence (P08246 30-267): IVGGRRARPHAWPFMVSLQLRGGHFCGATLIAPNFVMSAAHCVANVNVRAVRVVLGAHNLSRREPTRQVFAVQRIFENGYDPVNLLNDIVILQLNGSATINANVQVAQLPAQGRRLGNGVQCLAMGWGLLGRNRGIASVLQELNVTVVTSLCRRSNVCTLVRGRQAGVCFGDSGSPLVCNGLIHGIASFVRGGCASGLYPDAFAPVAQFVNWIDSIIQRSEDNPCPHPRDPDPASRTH

[2] = tested on: human keratinocytes; experiment: Cytophotoprotection of human keratinocytes against UV-B radiation; type: cell-based; conditions: for Cell number, % against control / Released LDH, % against control / Released PGE2, % against control: UVB
Source text: UV-B irradiation (from 280 to 320 nm) of the human skin induces a cutaneous inflammation mainly by activation of an enzyme (phospholipase A2 or PLA2), which releases arachidonic acid from the cell membranes of the cells of the skin (V. A. De Leo, D. Hanson, I. B. Weinstein and L. C. Harber—Ultraviolet radiation stimulates the release of arachidonic acid from mammalian cells in culture—Photochemistry and Photobiology (1985) volume 41N°1 pages 51-56). Then other specific enzymes (so called cyclo-oxygenases) transform arachidonic acid in active components called prostaglandines (or PG) which are secreted out of the cells. The fixation of certain prostaglandins (PGE2) on specific skin receptors is followed by redness and swelling as after a sunburn. On cultured human cells, these UV-B effects on cell membranes are associated with a release in the supernatant medium of a cytoplasmic enzyme, the Lactate Dehydrogenase or LDH (B. Bonnekoh, B. Farkas, J. Geisel and G. Mahrle—Lactate dehydrogenase release as an indicator of dithranol-induced membrane injury in cultured human keratinocytes. Dermatological research (1990) volume 282, pages 325-331).
Expressed in keywords, the experiments were carried out as follows: • Inoculation of human keratinocytes within growth medium (standard medium with fetal calf serum (FCS) • Incubation 3 days at 37° C., CO2=5% • Exchange of growth medium with balanced salt solution containing ingredient to be tested • Irradiation of keratinocytes by UV-B: 50 mJ/cm^2 (DUKE GL40E lamp) (A DUKE GL40E lamp is a certain type of marketed sunlamp well known to the skilled artisan) • Incubation 1 day at 37° C., CO2=5% • Numeration of adherent cells after trypsination (trypsination is a process based on the use of the enzyme trypsine which is a protease allowing the retrieval of cell from the support in order to seed the cells into a bigger flask and therefore to expand the cell culture) • Recovery of supernatant medium for spectrophotometric determination of the activity of LDH, and PGE2 by ELISA method

[3] = biological target: T2, bovine trypsin (Bos taurus, UniProt P00760); conditions: competitive or non-competitive; cited from earlier work
T2 sequence (P00760 24-246): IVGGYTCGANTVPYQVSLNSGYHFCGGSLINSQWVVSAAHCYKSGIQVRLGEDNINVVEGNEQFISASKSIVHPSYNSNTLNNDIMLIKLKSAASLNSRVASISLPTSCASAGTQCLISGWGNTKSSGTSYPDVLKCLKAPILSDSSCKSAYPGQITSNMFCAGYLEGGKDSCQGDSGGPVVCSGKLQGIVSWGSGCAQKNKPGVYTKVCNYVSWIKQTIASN

[4] = biological target: bovine chymotrypsin (Bos taurus, UniProt P00766); conditions: competitive or non-competitive; cited from earlier work
[5] = tested on: 5-lipoxygenase products in human neutrophils; conditions: cited from earlier work
[6] = tested on: leucine aminopeptidase; conditions: cited from earlier work
[7] = biological target: porcine pancreatic elastase (Sus scrofa, UniProt P00772); conditions: cited from earlier work
Chain of porcine pancreatic elastase (P00772 27-266): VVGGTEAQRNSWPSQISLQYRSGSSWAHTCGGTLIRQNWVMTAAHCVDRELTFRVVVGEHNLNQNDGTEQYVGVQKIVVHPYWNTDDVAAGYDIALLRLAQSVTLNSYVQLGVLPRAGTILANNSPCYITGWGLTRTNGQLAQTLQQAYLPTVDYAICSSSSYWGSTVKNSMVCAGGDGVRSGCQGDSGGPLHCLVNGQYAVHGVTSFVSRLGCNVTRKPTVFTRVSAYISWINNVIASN

[8] = tested on: leucine aminopeptidase; conditions: cited from earlier work; remark: listed apart in the source
[9] = biological target: T1, human leucocyte elastase (HLE); conditions: read-out: HLE inhibitory activity IC(50); cited from earlier work
[10] = tested on: Croton oil induced oedema of the mouse ear; conditions: cited from earlier work
[11] = tested on: skin chronic inflammation; conditions: in vivo; cited from earlier work
[12] = biological target: elastase from pancreas (Sus scrofa, UniProt P00772); experiment: Elastase inhibition, Elastin-Congo red as substrate; type: biochemical; conditions: 30 minutes at room temperature, Elastin-Congo red
Chain of elastase from pancreas (P00772 27-266): as above
Experimental: This test was carried out with an elastase from pancreas on Elastin labelled with Congo red. The time of incubation was 30 minutes at room temperature and the optical density of released Congo red was recorded after centrifugation at a wavelength of 520 nm. al-antitrypsine was used as positive reference.
The following table summarizes the results expressed as EC 50 in % w/v. (EC 50 in % w/v is the concentration in % w/v which reduces the enzymatic activity by 50%.)

[13] = tested on: human fibroblasts; experiment: Cytophotoprotection of human fibroblasts against UV-A radiation; type: cell-based
Experimental: The cytoprotection against UV-A radiation was evaluated by a test on human fibroblasts because UV-A radiation penetrates through the epidermis until the derma where it induces oxidative stress (DALLE CARBONARE M, PATHAK M A; Skin photosensitising agents and the role of reactive oxygen species in photoaging; JOURNAL OF PHOTOCHEMISTRY & PHOTOBIOLOGY, 1992, 14, 1-2, pages 105-124. This oxidative stress was evaluated in vitro by measuring of the level of released MDA (malonaldehyde) and of intracellular GSH (reduced glutathione) (Morliere P., Moisan A., Santus R., Huppe G., Mazière J. C., Dubertret L.: UV-A induced lipid peroxydation in cultured human fibroblasts. Biochim. Biophys. Acta, 1084, 3, pages 261-269 (1991)).
Expressed in keywords, the experiments were carried out as follows: • Inoculation of human fibroblasts within a growth medium (standard medium with foetal calf serum (FCS) • Incubation 3 days at 37° C., CO2=5% • Exchange of growth medium with balanced salt solution • Irradiation of fibroblasts by UV-A: 20 J/cm^2 (black light TFWN lamp) (A TFWN lamp is a certain type of marketed sunlamp well known to the skilled artisan) • Exchange of growth medium with standard medium without FCS but containing ingredient to be tested • Incubation 3 days at 37° C., CO2=5% • Recovery of supernatant medium for spectrophotometric determination of the malonaldialdehde (or MDA) rate • Cells number determined by evaluation of the levels of cellular proteins (Bradford's method) and the rate of cellular GSH was evaluated according to the method of Hissin

CC1(C)[C@@H](O)CC[C@]2(C)[C@H]3C(=O)C=C4[C@@H]5C[C@@](C)(C(=O)O)CC[C@]5(C)CC[C@@]4(C)[C@]3(C)CC[C@@H]12 [18 beta-glycyrrhetic acid]
interaction with the ursolic acid binding site of HLE [1]: can also interact with this binding site

CC(=O)Oc1ccccc1C(=O)O [Aspirin]
UV toxic effects on the number of viable cells (cell number and released LDH) [2]: distinctly reduced
release of inflammatory mediators such as PGE2 [2]: distinctly reduced
Cell number, % against control ([2]; dose 0.0003%): 67%
Released LDH, % against control ([2]; dose 0.0003%): 13%
Released PGE2, % against control ([2]; dose 0.0003%): 0%

COc1ccc2c(c1)c(CC(=O)O)c(C)n2C(=O)c1ccc(Cl)cc1 [Indomethacine, Indomethacin]
UV toxic effects on the number of viable cells (cell number and released LDH) [2]: moderately reduced
release of inflammatory mediators such as PGE2 [2]: drastically reduced
Cell number, % against control [2]: 34%
Released LDH, % against control [2]: 77%
Released PGE2, % against control [2]: 0%

C=C(C)[C@@H]1CC[C@]2(C)CC[C@]3(C)C(CC[C@@H]4[C@@]5(C)CC[C@H](OC(=O)CCCCCCC/C=C/C/C=C/CCCCC)C(C)(C)[C@@H]5CC[C@]43C)[C@@H]12 (stereo partly drawn) [Lupeol linoleate]
Ki [3]: 7 µM

CCCCCCCCCCCCCCCC(=O)O[C@H]1CC[C@]2(C)[C@H]3CC=C4[C@@H]5[C@@H](C)[C@H](C)CC[C@@]5(C)CC[C@@]4(C)[C@]3(C)CC[C@H]2C1(C)C [alpha-Amyrin palmitate]
Ki [4]: 6 µM

CC(=O)O[C@H]1CC[C@]2(C)[C@H]3CC=C4[C@@H]5[C@@H](C)[C@H](C)CC[C@]5(C)CC[C@@]4(C)[C@]3(C)CC[C@H]2C1(C)C [alpha-amyrin acetate]
5-HETE synthesis [5]: reduced
LTB4 synthesis [5]: without effect

CCCCCC=CCC=CCCCCCCCC(=O)OC1CCC2(C)C(CCC3(C)C2CC=C2C4C(C)C(C)CCC4(C)CCC23C)C1(C)C (stereo not drawn) [alpha-amyrin linoleate]
Ki [3]: 16 µM
Ki [4]: 28 µM

C[C@H]1[C@H](C)CC[C@]2(C)CC[C@]3(C)C(=CC[C@@H]4[C@@]5(C)CC[C@H](O)C(C)(C)[C@@H]5CC[C@]43C)[C@H]12 [alpha-amyrin]
Ki [3]: 29 µM
inhibition of Lucilia cuprina leucine aminopeptidase [6]: ineffective or very weak
Ki [4]: 18 µM
inhibition of porcine pancreatic elastase [7]: ineffective or very weak
inhibition of Helicoverpa punctigera leucine aminopeptidase [8]: ineffective or very weak

CC(=O)O[C@H]1CC[C@]2(C)[C@H]3CC=C4[C@@H]5CC(C)(C)CC[C@]5(C)CC[C@@]4(C)[C@]3(C)CC[C@H]2C1(C)C [beta-amyrin acetate]
5-HETE synthesis [5]: reduced
LTB4 synthesis [5]: without effect

CC1(C)CC[C@]2(C)CC[C@]3(C)C(=CC[C@@H]4[C@@]5(C)CC[C@H](O)C(C)(C)[C@@H]5CC[C@]43C)[C@@H]2C1 [beta-amyrin]
5-HETE synthesis [5]: reduced
LTB4 synthesis [5]: without effect

C[C@H]1C(=O)CC[C@@H]2[C@]1(C)CC[C@H]1[C@@]2(C)CC[C@@]2(C)[C@@H]3CC(C)(C)CC[C@]3(CO)CC[C@]12C [canophyllol]
IC50 [9]: 2.5 µM

CCCCCCCCCCCCCCCC(=O)OC1CCC2(C)C(CCC3(C)C2CCC2C4C(C)C(C)=CCC4(C)C(O)CC23C)C1(C)C (stereo not drawn) [faradiol-3-palmitic acid ester]
anti-oedematous activity [10]: nearly the same dose dependent anti-oedematous activity

CC1=CC[C@@]2(C)[C@H]([C@@H]1C)[C@H]1CC[C@@H]3[C@@]4(C)CC[C@H](O)C(C)(C)[C@@H]4CC[C@@]3(C)[C@]1(C)C[C@@H]2O [faradiol]
anti-oedematous activity [10]: more active than its esters and than psi-taraxasterol
anti-oedematous effect compared with indomethacin ([10]; equimolar dose): same effect

CC1(C)CC[C@]2(C(=O)O)CC[C@]3(C)C(=CC[C@@H]4[C@@]5(C)CC[C@H](O)[C@@](C)(CO)[C@@H]5CC[C@]43C)[C@@H]2C1 [hederagenin]
interaction with the ursolic acid binding site of HLE [1]: can also interact with this binding site

C=C(C)[C@@H]1CC[C@]2(C)CC[C@]3(C)[C@H](CC[C@@H]4[C@@]5(C)CC[C@H](OC(=O)CCCCCCCCCCCCCCC)C(C)(C)[C@@H]5CC[C@]43C)[C@@H]12 [lupeol palmitate]
Ki [3]: 10 µM

C=C(C)[C@@H]1CC[C@]2(C)CC[C@]3(C)[C@H](CC[C@@H]4[C@@]5(C)CC[C@H](O)C(C)(C)[C@@H]5CC[C@]43C)[C@@H]12 [lupeol]
Ki [3]: 22 µM
inhibition of Lucilia cuprina leucine aminopeptidase [6]: ineffective or very weak
Ki [4]: 8 µM
inhibition of porcine pancreatic elastase [7]: ineffective or very weak
inhibition of Helicoverpa punctigera leucine aminopeptidase [8]: ineffective or very weak
IC50 [9]: 1.9 µM

CC1=CCC2(C)CCC3(C)C(CCC4C5(C)CCC(O)C(C)(C)C5CCC43C)C2C1C (stereo not drawn) [psi-taraxasterol]
anti-oedematous activity [10]: slightly lower effect

C[C@H]1[C@H](C)CC[C@]2(C(=O)O)CC[C@]3(C)C(=CC[C@@H]4[C@@]5(C)CC[C@H](O)C(C)(C)[C@@H]5CC[C@]43C)[C@H]12 [ursolic acid]
Ki ([1]; hydrolysis of peptide substrates in phosphate-buffered saline, read-out: inhibition constant, HLE): 4 to 6 µM
activity on chronic dermal inflammation [11]: significantly effective
IC50 [9]: 4.4 µM

A1 anti trypsine: positive reference of the elastase test
Elastase EC 50 (concentration which reduces the enzymatic activity by 50%) [12]: 0.03% w/v

Tocopherol
protection of human fibroblasts from toxic UVA effects [13]: strongly protected
GSH/protein, % against control ([13]; UV-A 20 J/cm^2, dose 0.0003%): 89%
Released MDA, % against control ([13]; UV-A 20 J/cm^2, dose 0.0003%): 23%
cell's protein, % against control ([13]; UV-A 20 J/cm^2, dose 0.0003%): 106%

faradiol-3-myristic acid ester
anti-oedematous activity [10]: nearly the same dose dependent anti-oedematous activity
